Results from ChEMBL document CHEMBL1212763, “Pharmacokinetics and safety of S/GSK1349572, a next-generation HIV integrase inhibitor, in healthy volunteers” (Antimicrob Agents Chemother, 2010).

What was measured:
[1] = AUC (0-t) in healthy human at 100 mg administered as single dose suspension; assay type: ADME, organism-based; conditions: plasma
[2] = Tmax in healthy human at 2 mg administered as single dose suspension; assay type: ADME, organism-based; conditions: in vivo
[3] = AUC (0-t) in healthy human at 2 mg administered as single dose suspension; assay type: ADME, organism-based; conditions: plasma
[4] = Cmax in healthy human at 100 mg administered as single dose suspension; assay type: ADME, organism-based; parameters: dose 100 mg; conditions: in vivo
[5] = Cmax in healthy human at 25 mg, qd for 10 days administered as suspension measured after last dose; assay type: ADME, organism-based; parameters: dose 25 mg; conditions: in vivo
Homo sapiens [6] = assay: Toxicity in healthy human assessed as incidence of drug related incidence of somnolence at 5 mg administered as single dose suspension; assay type: organism-based; conditions: in vivo
[7] = Half life in healthy human at 50 mg administered as single dose suspension; assay type: ADME, organism-based; conditions: in vivo
Homo sapiens [8] = assay: Toxicity in healthy human assessed as incidence of drug related incidence of pruritis at 50 mg, qd for 10 days administered as suspension measured after last dose; assay type: organism-based; conditions: in vivo, 240 h
[9] = Apparent oral clearance in healthy human at 2 mg administered as single dose suspension; assay type: ADME, organism-based; conditions: in vivo
[10] = AUC (0-t) in healthy human at 5 mg administered as single dose suspension; assay type: ADME, organism-based; conditions: plasma
[11] = Apparent oral clearance in healthy human at 100 mg administered as single dose suspension; assay type: ADME, organism-based; conditions: in vivo
[12] = Half life in healthy human at 25 mg administered as single dose suspension; assay type: ADME, organism-based; conditions: in vivo
[13] = Cmax in healthy human at 10 mg, qd for 10 days administered as suspension measured after last dose; assay type: ADME, organism-based; parameters: dose 10 mg; conditions: in vivo
[14] = Half life in healthy human at 100 mg administered as single dose suspension; assay type: ADME, organism-based; conditions: in vivo
[15] = Tmax in healthy human at 25 mg, qd for 10 days administered as suspension measured after last dose; assay type: ADME, organism-based; conditions: in vivo
Homo sapiens [16] = assay: Toxicity in healthy human assessed as incidence of drug related incidence of pharyngolaryngeal pain at 10 mg, qd for 10 days administered as suspension measured after last dose; assay type: organism-based; conditions: in vivo, 240 h
Homo sapiens [17] = assay: Toxicity in healthy human assessed as incidence of drug related incidence of headache at 10 mg, qd for 10 days administered as suspension measured after last dose; assay type: organism-based; conditions: in vivo, 240 h
[18] = AUC (0-t) in healthy human at 25 mg administered as single dose suspension; assay type: ADME, organism-based; conditions: plasma
[19] = Apparent oral clearance in healthy human at 25 mg administered as single dose suspension; assay type: ADME, organism-based; conditions: in vivo
[20] = Tmax in healthy human at 50 mg administered as single dose suspension; assay type: ADME, organism-based; conditions: in vivo
[21] = Half life in healthy human at 5 mg administered as single dose suspension; assay type: ADME, organism-based; conditions: in vivo
Homo sapiens [22] = assay: Toxicity in healthy human assessed as incidence of drug related incidence of pharyngolaryngeal pain at 25 mg, qd for 10 days administered as suspension measured after last dose; assay type: organism-based; conditions: in vivo, 240 h
Homo sapiens [23] = assay: Toxicity in healthy human assessed as incidence of drug related incidence of headache at 25 mg, qd for 10 days administered as suspension measured after last dose; assay type: organism-based; conditions: in vivo, 240 h
[24] = Drug level at 24 hrs in healthy human at 2 mg administered as single dose suspension; assay type: ADME, organism-based; conditions: in vivo, read-out: Drug uptake
[25] = Cmax in healthy human at 50 mg administered as single dose suspension; assay type: ADME, organism-based; parameters: dose 50 mg; conditions: in vivo
Homo sapiens [26] = assay: Toxicity in healthy human assessed as incidence of drug related incidence of headache at 25 mg, qd for 10 days administered as suspension measured after last dose coadministered with 3 mg CYP3A4 probe midazolam; assay type: organism-based; conditions: in vivo, 240 h
[27] = Tmax in healthy human at 5 mg administered as single dose suspension; assay type: ADME, organism-based; conditions: in vivo
[28] = Drug level in healthy human at 25 mg, qd for 10 days administered as suspension measured after last dose; assay type: ADME, organism-based; conditions: in vivo, read-out: Drug uptake
Homo sapiens [29] = assay: Toxicity in healthy human assessed as incidence of drug related incidence of pruritis at 25 mg, qd for 10 days administered as suspension measured after last dose coadministered with 3 mg CYP3A4 probe midazolam; assay type: organism-based; conditions: in vivo, 240 h
[30] = Drug level in healthy human at 10 mg, qd for 10 days administered as suspension measured after last dose; assay type: ADME, organism-based; conditions: in vivo, read-out: Drug uptake
[31] = Drug level at 24 hrs in healthy human at 5 mg administered as single dose suspension; assay type: ADME, organism-based; conditions: in vivo, read-out: Drug uptake
[32] = Half life in healthy human at 10 mg administered as single dose suspension; assay type: ADME, organism-based; conditions: in vivo
[33] = Cmax in healthy human at 2 mg administered as single dose suspension; assay type: ADME, organism-based; parameters: dose 2 mg; conditions: in vivo
[34] = Apparent oral clearance in healthy human at 5 mg administered as single dose suspension; assay type: ADME, organism-based; conditions: in vivo
[35] = AUC (0-infinity) in healthy human at 10 mg administered as single dose suspension; assay type: ADME, organism-based; parameters: dose 10 mg, time infinity; conditions: plasma
[36] = Apparent oral clearance in healthy human at 50 mg administered as single dose suspension; assay type: ADME, organism-based; conditions: in vivo
[37] = Cmax in healthy human at 50 mg, qd for 10 days administered as suspension measured after last dose; assay type: ADME, organism-based; parameters: dose 50 mg; conditions: in vivo

C[C@@H]1CCO[C@H]2Cn3cc(C(=O)NCc4ccc(F)cc4F)c(=O)c([O-])c3C(=O)N12.[Na+] [DOLUTEGRAVIR SODIUM]
AUC(0-t) [1]: 131000 ng·h/mL
Tmax [2]: 0.63 h
AUC(0-t) [3]: 2630 ng·h/mL
Cmax [4]: 8140 ng/mL
Cmax [5]: 3090 ng/mL
Activity (Homo sapiens [6]): 0%
half-life [7]: 14.2 h
Activity (Homo sapiens [8]): 22%
CL/F [9]: 12 mL/min
AUC(0-t) [10]: 8540 ng·h/mL
CL/F [11]: 12.3 mL/min
half-life [12]: 12.7 h
Cmax [13]: 1470 ng/mL
half-life [14]: 14.7 h
Tmax [15]: 1 h
Activity (Homo sapiens [16]): 0%
Activity (Homo sapiens [17]): 0%
AUC(0-t) [18]: 34300 ng·h/mL
CL/F [19]: 11.8 mL/min
Tmax [20]: 1.25 h
half-life [21]: 14.3 h
Activity (Homo sapiens [22]): 0%
Activity (Homo sapiens [23]): 0%
concentration at 24 h [24]: 38.2 ng/mL
Cmax [25]: 4560 ng/mL
Activity (Homo sapiens [26]): 0%
Tmax [27]: 0.5 h
concentration at 240 h [28]: 840 ng/mL
Activity (Homo sapiens [29]): 0%
concentration at 240 h [30]: 350 ng/mL
concentration at 24 h [31]: 126 ng/mL
half-life [32]: 12.7 h
Cmax [33]: 231 ng/mL
CL/F [34]: 9.33 mL/min
AUC(0-inf) [35]: 14600 ng·h/mL
CL/F [36]: 11.3 mL/min
Cmax [37]: 6160 ng/mL
